Measurements published in US6355799B1, “Substituted benzene compounds, process for their preparation, and herbicidal and defoliant compositions containing them” (ISK Americas Incorporated, priority 1997, dated 2002).

How the values were obtained:
Type in all cases: in vivo
[1] = test system: redroot pigweed (Amaranthus retroflexus, AMARE); assay: Pre-emerge test, greenhouse herbicide activity screening; settings: pre-emerge, phytotoxicity rating 0-100 at 14 days after application
Procedure, shortened: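 Sandy loam pots; pre-emerge: sown 1 d pre-spray, surface-watered after, then bottom-watered. Post-emerge: sown 8–21 d before, 2–3 leaf stage, + 0.25% v/v NIS, bottom-watered. Acetone, 187 l/ha track spray, 15–1000 g ai/ha. 0–100 injury score, day 14.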

[2] = test system: barnyardgrass (Echinochloa crus-galli, ECHCG); assay: as above; settings: pre-emerge, phytotoxicity rating 0-100 at 14 days after application
Procedure, shortened: (§1)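 Visual ratings on a 0-100 scale (0 no damage, 100 all plants dead) were taken at 14 days after treatment. Rates of 15-1000 g ai/ha in acetone, 187 l/ha, were sprayed onto soil one day after planting (pre-emerge) or onto 2-3 leaf plants with 0.25% v/v surfactant (post-emerge).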

[3] = test system: green foxtail (Setaria viridis, SETVI); assay: as above; settings: pre-emerge, phytotoxicity rating 0-100 at 14 days after application
Procedure, shortened: as §1

[4] = test system: ivyleaf morningglory (Ipomoea hederacea, IPOHE); assay: as above; settings: pre-emerge, phytotoxicity rating 0-100 at 14 days after application
Procedure, shortened: as §1

[5] = test system: johnsongrass (Sorghum halepense, SORHA); assay: as above; settings: pre-emerge, phytotoxicity rating 0-100 at 14 days after application
Procedure, shortened: as §1

[6] = test system: lambsquarters (Chenopodium album, CHEAL); assay: as above; settings: pre-emerge, phytotoxicity rating 0-100 at 14 days after application
Procedure, shortened: as §1

[7] = test system: large crabgrass (Digitaria sanguinalis, DIGSA); assay: as above; settings: pre-emerge, phytotoxicity rating 0-100 at 14 days after application
Procedure, shortened: as §1

[8] = test system: sicklepod (Cassia obtusifolia, CASOB); assay: as above; settings: pre-emerge, phytotoxicity rating 0-100 at 14 days after application
Procedure, shortened: as §1

[9] = test system: velvetleaf (Abutilon theophrasti, ABUTH); assay: as above; settings: pre-emerge, phytotoxicity rating 0-100 at 14 days after application
Procedure, shortened: as §1

[10] = test system: field corn (Zea mays L., var. Dekalb 535, CORN); assay: Pre-emerge test, crop safety; settings: crop damage, pre-emerge, phytotoxicity rating 0-100 at 14 days after application
Procedure, shortened: (§2)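 Fourteen days after spraying, crop and weed injury was graded visually from 0, no effect, to 100, every plant dead. Test substances were dissolved in acetone and applied at 15–1000 g ai/ha with a flat-fan nozzle. Application was either pre-emergence, one day after sowing, or post-emergence at the 2–3 leaf stage.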

[11] = test system: upland rice (Oryza sp., var. Tebonnet, RICE); assay: Pre-emerge test, crop safety; settings: crop damage, pre-emerge, phytotoxicity rating 0-100 at 14 days after application
Procedure, shortened: as §2

[12] = test system: barnyardgrass (Echinochloa crus-galli, ECHCG); assay: Post-emerge test, greenhouse herbicide activity screening; settings: post-emerge, phytotoxicity rating 0-100 at 14 days after application
Procedure, shortened: (§3)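 Each test used a mechanized track sprayer delivering 187 l/ha of acetone solution at 15–1000 g ai/ha. Post-emerge foliage at 2–3 leaves was treated with added 0.25% v/v non-ionic surfactant and bottom-watered only. Injury was assessed on day 14, where 100 means total kill.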

[13] = test system: green foxtail (Setaria viridis, SETVI); assay: as above; settings: post-emerge, phytotoxicity rating 0-100 at 14 days after application
Procedure, shortened: as §3

[14] = test system: ivyleaf morningglory (Ipomoea hederacea, IPOHE); assay: as above; settings: post-emerge, phytotoxicity rating 0-100 at 14 days after application
Procedure, shortened: as §3

[15] = test system: johnsongrass (Sorghum halepense, SORHA); assay: as above; settings: post-emerge, phytotoxicity rating 0-100 at 14 days after application
Procedure, shortened: as §3

[16] = test system: lambsquarters (Chenopodium album, CHEAL); assay: as above; settings: post-emerge, phytotoxicity rating 0-100 at 14 days after application
Procedure, shortened: as §3

[17] = test system: large crabgrass (Digitaria sanguinalis, DIGSA); assay: as above; settings: post-emerge, phytotoxicity rating 0-100 at 14 days after application
Procedure, shortened: as §3

[18] = test system: redroot pigweed (Amaranthus retroflexus, AMARE); assay: as above; settings: post-emerge, phytotoxicity rating 0-100 at 14 days after application
Procedure, shortened: as §3

[19] = test system: sicklepod (Cassia obtusifolia, CASOB); assay: as above; settings: post-emerge, phytotoxicity rating 0-100 at 14 days after application
Procedure, shortened: as §3

[20] = test system: velvetleaf (Abutilon theophrasti, ABUTH); assay: as above; settings: post-emerge, phytotoxicity rating 0-100 at 14 days after application
Procedure, shortened: as §3

[21] = test system: field corn (Zea mays L., var. Dekalb 535, CORN); assay: Post-emerge test, crop safety; settings: post-emerge, crop damage rating 0-100 at 14 days after application
Procedure, shortened: as §1

[22] = test system: upland rice (Oryza sp., var. Tebonnet, RICE); assay: Post-emerge test, crop safety; settings: post-emerge, crop damage rating 0-100 at 14 days after application
Procedure, shortened: as §1

## COc1c(Cl)cc(F)c(N2C(=O)C3=C(CCCC3)C2=O)c1N [8-7]
[1]; rate 63 g ai/ha
  Pre-emerge Herbicidal Activity AMARE: 99
[1]; rate 250 g ai/ha
  Pre-emerge Herbicidal Activity AMARE: 100
[2]; rate 63 g ai/ha
  Pre-emerge Herbicidal Activity ECHCG: 0
[2]; rate 250 g ai/ha
  Pre-emerge Herbicidal Activity ECHCG: 70
[3]; rate 63 g ai/ha
  Pre-emerge Herbicidal Activity SETVI: 95
[3]; rate 250 g ai/ha
  Pre-emerge Herbicidal Activity SETVI: 99
[4]; rate 63 g ai/ha
  Pre-emerge Herbicidal Activity IPOHE: 0
[4]; rate 250 g ai/ha
  Pre-emerge Herbicidal Activity IPOHE: 0
[5]; rate 63 g ai/ha
  Pre-emerge Herbicidal Activity SORHA: 10
[5]; rate 250 g ai/ha
  Pre-emerge Herbicidal Activity SORHA: 70
[6]; rate 63 g ai/ha
  Pre-emerge Herbicidal Activity CHEAL: 95
[6]; rate 250 g ai/ha
  Pre-emerge Herbicidal Activity CHEAL: 100
[7]; rate 63 g ai/ha
  Pre-emerge Herbicidal Activity DIGSA: 50
[7]; rate 250 g ai/ha
  Pre-emerge Herbicidal Activity DIGSA: 80
[8]; rate 63 g ai/ha
  Pre-emerge Herbicidal Activity CASOB: 0
[8]; rate 250 g ai/ha
  Pre-emerge Herbicidal Activity CASOB: 0
[9]; rate 63 g ai/ha
  Pre-emerge Herbicidal Activity ABUTH: 100
[9]; rate 250 g ai/ha
  Pre-emerge Herbicidal Activity ABUTH: 100
[10]; rate 63 g ai/ha
  Pre-emerge Herbicidal Activity CORN: 0
[10]; rate 250 g ai/ha
  Pre-emerge Herbicidal Activity CORN: 10
[11]; rate 63 g ai/ha
  Pre-emerge Herbicidal Activity RICE: 0
[11]; rate 250 g ai/ha
  Pre-emerge Herbicidal Activity RICE: 0
[12]; 63 g ai/ha
  Post-emerge Herbicidal Activity ECHCG: 0
[12]; 250 g ai/ha
  Post-emerge Herbicidal Activity ECHCG: 20
[13]; 63 g ai/ha
  Post-emerge Herbicidal Activity SETVI: 0
[13]; 250 g ai/ha
  Post-emerge Herbicidal Activity SETVI: 90
[14]; 63 g ai/ha
  Post-emerge Herbicidal Activity IPOHE: 10
[14]; 250 g ai/ha
  Post-emerge Herbicidal Activity IPOHE: 70
[15]; 63 g ai/ha
  Post-emerge Herbicidal Activity SORHA: 0
[15]; 250 g ai/ha
  Post-emerge Herbicidal Activity SORHA: 0
[16]; 63 g ai/ha
  Post-emerge Herbicidal Activity CHEAL: 95
[16]; 250 g ai/ha
  Post-emerge Herbicidal Activity CHEAL: 99
[17]; 63 g ai/ha
  Post-emerge Herbicidal Activity DIGSA: 0
[17]; 250 g ai/ha
  Post-emerge Herbicidal Activity DIGSA: 10
[18]; 63 g ai/ha
  Post-emerge Herbicidal Activity AMARE: 95
[18]; 250 g ai/ha
  Post-emerge Herbicidal Activity AMARE: 100
[19]; 63 g ai/ha
  Post-emerge Herbicidal Activity CASOB: 0
[19]; 250 g ai/ha
  Post-emerge Herbicidal Activity CASOB: 90
[20]; 63 g ai/ha
  Post-emerge Herbicidal Activity ABUTH: 95
[20]; 250 g ai/ha
  Post-emerge Herbicidal Activity ABUTH: 100
[21]; 63 g ai/ha
  Post-emerge Herbicidal Activity CORN: 10
[21]; 250 g ai/ha
  Post-emerge Herbicidal Activity CORN: 10
[22]; 63 g ai/ha
  Post-emerge Herbicidal Activity RICE: 0
[22]; 250 g ai/ha
  Post-emerge Herbicidal Activity RICE: 90

## C#CCOc1c(Cl)cc(F)c(N2C(=O)C3=C(CCCC3)C2=O)c1NC(=O)c1ccc(F)cc1F [8-13]
[1]; rate 63 g ai/ha
  Pre-emerge Herbicidal Activity AMARE: 50
[1]; rate 125 g ai/ha
  Pre-emerge Herbicidal Activity AMARE: 70
[2]; rate 63 g ai/ha
  Pre-emerge Herbicidal Activity ECHCG: 0
[2]; rate 125 g ai/ha
  Pre-emerge Herbicidal Activity ECHCG: 30
[3]; rate 63 g ai/ha
  Pre-emerge Herbicidal Activity SETVI: 20
[3]; rate 125 g ai/ha
  Pre-emerge Herbicidal Activity SETVI: 40
[4]; rate 63 g ai/ha
  Pre-emerge Herbicidal Activity IPOHE: 0
[4]; rate 125 g ai/ha
  Pre-emerge Herbicidal Activity IPOHE: 0
[5]; rate 63 g ai/ha
  Pre-emerge Herbicidal Activity SORHA: 0
[5]; rate 125 g ai/ha
  Pre-emerge Herbicidal Activity SORHA: 30
[6]; rate 63 g ai/ha
  Pre-emerge Herbicidal Activity CHEAL: 100
[6]; rate 125 g ai/ha
  Pre-emerge Herbicidal Activity CHEAL: 70
[7]; rate 63 g ai/ha
  Pre-emerge Herbicidal Activity DIGSA: 0
[7]; rate 125 g ai/ha
  Pre-emerge Herbicidal Activity DIGSA: 40
[8]; rate 63 g ai/ha
  Pre-emerge Herbicidal Activity CASOB: 0
[8]; rate 125 g ai/ha
  Pre-emerge Herbicidal Activity CASOB: 0
[9]; rate 63 g ai/ha
  Pre-emerge Herbicidal Activity ABUTH: 90
[9]; rate 125 g ai/ha
  Pre-emerge Herbicidal Activity ABUTH: 100
[10]; rate 63 g ai/ha
  Pre-emerge Herbicidal Activity CORN: 0
[10]; rate 125 g ai/ha
  Pre-emerge Herbicidal Activity CORN: 0
[11]; rate 63 g ai/ha
  Pre-emerge Herbicidal Activity RICE: 10
[11]; rate 125 g ai/ha
  Pre-emerge Herbicidal Activity RICE: 10
[12]; 63 g ai/ha
  Post-emerge Herbicidal Activity ECHCG: 20
[12]; 125 g ai/ha
  Post-emerge Herbicidal Activity ECHCG: 40
[13]; 63 g ai/ha
  Post-emerge Herbicidal Activity SETVI: 30
[13]; 125 g ai/ha
  Post-emerge Herbicidal Activity SETVI: 30
[14]; 63 g ai/ha
  Post-emerge Herbicidal Activity IPOHE: 50
[14]; 125 g ai/ha
  Post-emerge Herbicidal Activity IPOHE: 60
[15]; 63 g ai/ha
  Post-emerge Herbicidal Activity SORHA: 10
[15]; 125 g ai/ha
  Post-emerge Herbicidal Activity SORHA: 20
[16]; 63 g ai/ha
  Post-emerge Herbicidal Activity CHEAL: 90
[16]; 125 g ai/ha
  Post-emerge Herbicidal Activity CHEAL: 90
[17]; 63 g ai/ha
  Post-emerge Herbicidal Activity DIGSA: 20
[17]; 125 g ai/ha
  Post-emerge Herbicidal Activity DIGSA: 10
[18]; 63 g ai/ha
  Post-emerge Herbicidal Activity AMARE: 100
[18]; 125 g ai/ha
  Post-emerge Herbicidal Activity AMARE: 100
[19]; 63 g ai/ha
  Post-emerge Herbicidal Activity CASOB: 30
[19]; 125 g ai/ha
  Post-emerge Herbicidal Activity CASOB: 50
[20]; 63 g ai/ha
  Post-emerge Herbicidal Activity ABUTH: 100
[20]; 125 g ai/ha
  Post-emerge Herbicidal Activity ABUTH: 100
[21]; 63 g ai/ha
  Post-emerge Herbicidal Activity CORN: 10
[21]; 125 g ai/ha
  Post-emerge Herbicidal Activity CORN: 40
[22]; 63 g ai/ha
  Post-emerge Herbicidal Activity RICE: 30
[22]; 125 g ai/ha
  Post-emerge Herbicidal Activity RICE: 70
